Holding throughout (format): functional, cell-based
Test [1] relates to MDA-MB-231. Description: Cytotoxicity against human MDA-MB-231 cells assessed as reduction in cell viability upto 100 uM incubated for 24 hrs by MTT assay. As to conditions: dose microM <=100, time 24.0 hrs.
Test [2] concerns MDA-MB-231. Description: Inhibition of cell migration in human MDA-MB-231 at 70 uM incubated for 24 hrs by scratch wound healing assay.
The next test relates to L5178Y. The test can be described thus: Cytotoxicity against mouse L5178Y cells assessed as reduction in cell viability incubated for 24 hrs by MTT assay.

The values that follow come from ChEMBL document CHEMBL4673329, “Polyketides from the marine-derived fungus Aspergillus falconensis: In silico and in vitro cytotoxicity studies” (Bioorg Med Chem, 2021).

pIC50: −log10 of the molar value. Activity calls are given as the source filed them. The rule behind the calls is not given here.

For `COC(=O)c1cc(O)cc(OC)c1C(=O)c1c(O)cc(C)c(Cl)c1O`, the outcome in the test on MDA-MB-231 [1] was inactive.
With `COC(=O)c1cc(O)cc(OC)c1C(=O)c1c(O)cc(C)cc1O` [SULOCHRIN], the inhibition result in the test on MDA-MB-231 [2] was “Active”. In addition, in the test on MDA-MB-231 [1], the result was inactive. For the same compound, in the test on L5178Y, the pIC50 is 5.29.
